From patent US8445511B2, “Quinoline or quinoxaline derivatives for treating neurodegenerative diseases” (Centre National de la Recherche Scientifique (SNRS), priority 2008, dated 2013)

Tested on: fetal dopaminergic neurons in culture
Assay: Neuroprotection and differentiation of dopaminergic (TH+) neurons in primary culture of rat embryo mesencephalon (spontaneous degeneration model)
Assay type: cell-based
Design: key to Diff (qualitative assessment of neuron differentiation): + indicates that the neurons have a morphology similar to that of the control; ++ and +++ indicate the presence of neurons whose extensions are longer and more numerous than the control neurons; ++ and +++ indicate the presence of neurons whose extensions are longer and more numerous than the control neurons; − indicates that the neurons have neurites that are shorter and less numerous than the control neurons
Conditions: for Diff (qualitative assessment of neuron differentiation): dopaminergic neurons in culture; for viability at 0.1 µM: Rattus norvegicus, Neuron, 192 h, read-out: % Neurons relative to the control ±SEM
Experimental: Dissection consists in extracting the embryos from the uterus of a rat at fifteen days of gestation. The brain of each embryo is then dissected under a binocular magnifier in order to extract the ventral mesencephalon.
The mesencephalons are gathered in a flask containing 2 ml of L15 medium and then mechanically dissociated (30 times), and then 5 ml of L15 medium are added. The suspension is left to rest for 8 minutes. 5 ml of the supernatant are recovered in a new flask and the cells are dissociated again (30 times). 5 ml of L15 are again added and the suspension is left to rest for 8 minutes. 5 ml of supernatant are added to the preceding. The cells thus extracted are then centrifuged for 5 minutes at 1,000 rpm. The cell pellet is taken up in Neurobasal medium supplemented with 1% B27, 1% glutamine and 1% penicillin/streptomycin mixture. The cells are then inoculated at the appropriate dilution (0.6 embryo per well on a 24-well plate and 0.4 per well on a 48-well plate). The cultures are incubated at 37° C. in a humid atmosphere enriched with 5% CO2 in a 24- or 48-well plate.
After 24 hours, two-thirds of the medium of each well is replaced by new medium enriched with the compound of the invention to test at the appropriate dilution. The medium is replaced in the same way after 4 days of culture.
At 8 days of culture, the cells are fixed by a 4% formaldehyde solution and then washed three times with PBS. The cells then undergo several immunohistochemistry procedures: • anti-tyrosine hydroxylase (TH) visualized by a secondary antibody coupled to a fluorochrome that emits in the red spectrum (Cy3). • anti-MAP2 (MAP=microtubule-associated protein) (neuron marker) visualized by a secondary antibody coupled to a fluorochrome that emits in the green spectrum (alexa488). • DAPI (4′,6-diamidino-2-phenylindole), a nuclear marker that emits in the blue spectrum.
Neuroprotection is evaluated by counting TH positive neurons directly under the microscope or MAP2 positive on images, at 15 images per well, expressed as a percentage of the untreated control. The experiments include three wells per condition. Three independent experiments are carried out under these conditions. Total neurite length per cell calculated by the Neurite Outgrowth software by Explora Nova on 20 neurons photographed independently per well gives an indication of the state of maturation of the dopaminergic neurons.
The compounds of the invention were tested on a model of spontaneous degeneration of dopaminergic neurons in culture.
This model consists of culturing cells of the ventral mesencephalon of rat embryo. This part of the brain in culture contains dopaminergic neurons and other primarily GABAergic neurons. These cultures are also composed of glial cells, namely astrocytes, oligodendrocytes and microglia. This is a model of spontaneous degeneration of dopaminergic neurons which mimics certain aspects of Parkinson's disease.
The neuroprotective effect of the compounds of the invention was evaluated by counting dopaminergic neurons (TH^+) marked by tyrosine hydroxylase (TH) immunohistochemistry after 8 days of culture. Thus the compounds were evaluated at 1 nM, 10 nM, 100 nM and 1 μM and were compared with the activity of dibutyryl cyclic AMP (db-cAMP) used as the reference product.
In order to evaluate more quantitatively the activity of the compounds of the invention, neurite growth per cell was measured using the Neurite Outgrowth software developed by Explora Nova. A minimum of 60 neurons per condition were photographed and studied, and the results were then averaged and normalized by the number of neurons considered.

[1] = 100 nM, survival of TH+ dopaminergic neurons after 8 days of culture

Structure (SMILES): CCCCCCCCCCCCCCC(=O)Nc1ccc2nccnc2c1 [Compound F1, Nr-(quinoxalin-6-yl)pentadecanamide]
- Diff (qualitative assessment of neuron differentiation) (100 nM): +++
- viability at 0.1 µM [1]: 125 ± 5.5%

Structure (SMILES): CCCCCCCCCCCCCCC(=O)Nc1ccc2nc(C)cnc2c1 [Compound F2, N-(2-methylquinoxalin-6-yl)pentadecanamide]
- Diff (qualitative assessment of neuron differentiation) (100 nM): +++
- viability at 0.1 µM [1]: 120 ± 3.1%

Structure (SMILES): CCCCCCCCCCCCCCC(=O)Nc1ccc2ncc(CCCC)nc2c1 [Compound F3, N-(3-butylquinoxalin-6-yl)pentadecanamide]
- Diff (qualitative assessment of neuron differentiation) (100 nM): ++
- viability at 0.1 µM [1]: 114 ± 3.8%

Structure (SMILES): CCCCCCCCCCCCCCC(=O)Nc1ccc2nc(CCCCCC)c(CCCC)nc2c1 [Compound F4, N-(2-hexyl-3-butylquinoxalin-6-yl)pentadecanamide]
- Diff (qualitative assessment of neuron differentiation) (100 nM): ++
- viability at 0.1 µM [1]: 101 ± 2.2%

Structure (SMILES): CCCCCCCCCCCCCCCNc1ccc2nccnc2c1 [Compound G1, N-(quinoxalin-6-yl)pentadecanamine]
- Diff (qualitative assessment of neuron differentiation) (100 nM): +++
- viability at 0.1 µM [1]: 131 ± 10.9%

Structure (SMILES): CCCCCCCCCCCCCCCNc1ccc2nc(C)cnc2c1 [Compound G2, N-(2-methylquinoxalin-6-yl)pentadecanamine]
- Diff (qualitative assessment of neuron differentiation) (100 nM): +++
- viability at 0.1 µM [1]: 135 ± 4.4%

Structure (SMILES): CCCCCCCCCCCCCCCNc1ccc2ncc(CCCC)nc2c1 [Compound G3, N-(3-butylquinoxalin-6-yl)pentadecanamine]
- Diff (qualitative assessment of neuron differentiation) (100 nM): ++
- viability at 0.1 µM [1]: 113 ± 7%

Structure (SMILES): CCCCCCCCCCCCCCCNc1ccc2nc(CCCCCC)c(CCCC)nc2c1 [Compound G4, N-(2-hexyl-3-butylquinoxalin-6-yl)pentadecanamine]
- Diff (qualitative assessment of neuron differentiation) (100 nM): ++
- viability at 0.1 µM [1]: 111 ± 5.3%

Structure (SMILES): OCCCCCCCCCCCCCCCNc1ccc2nccnc2c1 [Compound G5, 15-hydroxy-N-(quinoxalin-6-yl)pentadecylamine]
- Diff (qualitative assessment of neuron differentiation) (100 nM): ++
- viability at 0.1 µM [1]: 130 ± 7%

Structure (SMILES): OCCCCCCCCCCCC#Cc1ccc2ccccc2n1 [Compound K2, 13-(quinolin-2-yl)tridec-12-yn-1-ol]
- Diff (qualitative assessment of neuron differentiation) (100 nM): ++
- viability at 0.1 µM [1]: 121 ± 3.1%

Structure (SMILES): C#CC(O)CCCCCCCCCCCCCCc1ccc2ccccc2n1 (stereo not drawn) [Compound N′3, 17-(quinolin-2-yl)heptadec-1-yn-3-ol]
- neuroprotective activity (percentage of survival of dopaminergic neurons), in words, versus reference product db-cAMP (dopaminergic neurons, 8 days of culture): equal to or greater than that of the reference product

Structure (SMILES): C#CC(O)CCC#Cc1cnc2ccccc2c1 (stereo not drawn) [Compound Z1, reference compound]
- dose-response of effect on survival of dopaminergic neurons (1 nM, 10 nM, 100 nM and 1 μM, FIG. 2): zero at all the concentrations tested
- Diff (qualitative assessment of neuron differentiation) (100 nM): −
- viability at 0.1 µM [1]: 98.2 ± 6.3%

Structure (SMILES): C#CC(O)CCCCc1cnc2ccccc2c1 (stereo not drawn) [Compound Z2, reference compound]
- Diff (qualitative assessment of neuron differentiation) (100 nM): +
- viability at 0.1 µM [1]: 118 ± 6.1%

Structure (SMILES): CCCCC#Cc1cnc2ccccc2c1 [Compound Z3, reference compound]
- Diff (qualitative assessment of neuron differentiation) (100 nM): −
- viability at 0.1 µM [1]: 104 ± 4.2%

Structure (SMILES): CCCC(=O)Nc1ncnc2c1ncn2[C@@H]1O[C@@H]2COP(=O)(O)O[C@H]2[C@H]1OC(=O)CCC [db-cAMP, dibutyryl cyclic AMP, reference compound]
- Diff (qualitative assessment of neuron differentiation) (100 nM): +++
- % Neurons relative to the control ±SEM [1]: 149.9 ± 3.6%
